# Experimental data taken from publication PMC7918823, “Novel Potent and Selective DPP-4 Inhibitors: Design, Synthesis and Molecular Docking Study of Dihydropyrimidine Phthalimide Hybrids” (Pharmaceuticals, 2021).
# Key:
# [1] = Cytotoxicity test (MTT assay); assay type: cell-based; settings: human, normal hepatic LO2 cells, read-out: cell viability
# Protocol: We assessed any possible cytotoxic effect of our synthesized hybrids 10a–j on hepatic LO2 cells using MTT assay. The cells, in DMEM (Gibco, Invitrogen), were seeded in 96 well plates at density of 1 × 10^4/well. The synthesized compounds were added to the cells and incubated for 48 h at 37 °C and 5% CO2. Then, MTT reagent was added and the cells were re-incubated for further 4 h. After discarding the supernatants, the formed formazan crystals were dissolved in DMSO. The intensity of color was assessed using microplate reader (Bio-Rad Laboratories, Hercules, CA, USA) at 490 nm wavelength.
# [2] = Antioxidant activity (DPPH method); settings: 100 µM compound, 100 µM DPPH, 20 min, mean ± SE of four replicates
# Protocol: DPPH (1,1-diphenyl-2-picrylhydrazyl) free radical is stable at rt and has a purple colour with a maximum absorption at 517 nm. This free radical is reduced by antioxidant molecules into 1,1-diphenyl-2-picrylhydrazine with resultant discolouration of free radical; this discolouration is stoichiometric with regard to the captured electrons. Accordingly, the fluctuation in the absorbance is an indicator for the antioxidant activity. Our synthesized hybrids 10a–j (100 µM) were mixed with DPPH (100 µM) and left for 20 min at rt, the absorbance was measured at 517 nm.
# recombinant human DPP-4 = biological target: T1, recombinant human DPP-4 (Homo sapiens, UniProt P27487); assay: In vitro DPP-4 inhibition assay (continuous fluorometric, Gly-Pro-AMC); assay type: biochemical; settings: for IC50: recombinant human DPP-4, mean ± SE of four replicates; for Fold DPP-4 inhibitory activity relative to alogliptin: from IC50 values, versus alogliptin
# T1 construct: purchased Sigma Aldrich
# Protocol: (§1) DPP-4 inhibition was assessed, as previously described, based on a continuous fluorometric assay method in which the substrate Gly-Pro-AMC (Gly-Pro-7-amido-4-methylcoumarin hydrobromide) was split by DPP-4 to release fluorescent aminomethyl coumarin (AMC). The liberated AMC was continuously monitored using an excitation wavelength of 360 nm and an emission wavelength of 460 nm using an EnVision microplate reader (PerkinElmer, Waltham, MA, USA). The reaction mixture consisted of different concentrations of the synthesized hybrids 10a–j, 20 µU/µL of recombinant human DPP-4 (Sigma Aldrich, St. Louis, MO, USA), 10 µM Gly-Pro-AMC (Sigma Aldrich, St. Louis, MO, USA) and assay buffer (150 mM NaCl, 25 mM 4-(2-hydroxyethyl)-1-piperazineethanesulfonic acid (HEPES), 0.12 mg/ml bovine serum albumin (BSA)) and pH of 7.5. The assay was carried out in quadruplicate. IC50 was calculated using GraphPad Prism 8 software (San Diego, CA, USA). Similar to the DPP-4 assay, DPP-8 and DPP-9 inhibition assay was performed and the pH of the assay buffer was 8.
# DPP-9 = DPP-9 (Homo sapiens, UniProt Q86TI2); assay: In vitro DPP-9 inhibition assay; assay type: biochemical; settings: assay buffer pH 8
# Protocol: as §1
# DPP-8 = DPP-8 (Homo sapiens, UniProt Q6V1X1); assay: In vitro DPP-8 inhibition assay; assay type: biochemical; settings: assay buffer pH 8
# Protocol: as §1
# [3] = system: HFD-induced type 2 diabetic rats; assay: Oral glucose tolerance test after chronic treatment in HFD-induced type 2 diabetic rats; assay type: in vivo, SD rats; settings: for Glucose tolerance (AUC of OGTT versus non-treated diabetic group): 10 mg/kg/day oral, in absence of MET; for Reduction of AUC of OGTT by MET addition: hybrid 10 mg/kg/day oral plus MET 150 mg/kg/day
# From the text: After acclimatization period, rats were randomly divided into 25 groups, each of seven rats. The first group was normal control group which maintained on normal rat chow for the entire experiment period (16 weeks). The second group served as diabetic control group in which T2DM was induced by HFD that consisted of casein (30%), raw beef fat (Suet, 40%), wheat flour (7%), glucose (10%), salt mixture (6%), vitamin mixture (3%), and bran (4%), for 16 weeks. […] At the end of treatment regimen that lasted for four weeks; using our synthesized hybrids 10a–j with and without MET, rats were fasted overnight (12 h) with free access to water. Oral glucose tolerance test (OGTT) was performed as previously described. […] Roche Diagnostics, Rotkreuz, Switzerland).
# blood DPP-4 activity = biological target: T2, blood DPP-4 activity (Rattus norvegicus, UniProt P14740); assay: In vivo DPP-4 inhibition assay (blood DPP-4 activity); settings: SD rats, single oral dose 10 mg/kg
# T2 construct: from tissue; host or cells: plasma of male SD rats
# Protocol: The assay was performed using male SD rats (n = 3 per group), as previously described. The synthesized hybrids 10a–j were suspended in […] cellulose (CMC) and administrated orally at a single dose of 10 mg/kg.
# Blood samples were collected at time points 0, 6, 12, 24, 36 and 48 h. Plasma samples were extracted and kept at −20 °C until analysis time. Similar to the in vitro DPP-4 assay principle, plasma samples were mixed with equal volumes of Gly-Pro-AMC in assay buffer (100 mM HEPES, 0.1 mg/ml BSA) and pH of 7.5. The liberated AMC was continuously monitored using an excitation wavelength of 360 nm and an emission wavelength of 460 nm using EnVision microplate reader (PerkinElmer, Waltham, MA, USA). The data were expressed as% blood DPP-4 activity.
# [4] = combined with MET 150 mg/kg/day oral, four weeks (hybrid 10 mg/kg/day, alogliptin 20 mg/kg/day)
# T1 sequence (P27487 whole entry): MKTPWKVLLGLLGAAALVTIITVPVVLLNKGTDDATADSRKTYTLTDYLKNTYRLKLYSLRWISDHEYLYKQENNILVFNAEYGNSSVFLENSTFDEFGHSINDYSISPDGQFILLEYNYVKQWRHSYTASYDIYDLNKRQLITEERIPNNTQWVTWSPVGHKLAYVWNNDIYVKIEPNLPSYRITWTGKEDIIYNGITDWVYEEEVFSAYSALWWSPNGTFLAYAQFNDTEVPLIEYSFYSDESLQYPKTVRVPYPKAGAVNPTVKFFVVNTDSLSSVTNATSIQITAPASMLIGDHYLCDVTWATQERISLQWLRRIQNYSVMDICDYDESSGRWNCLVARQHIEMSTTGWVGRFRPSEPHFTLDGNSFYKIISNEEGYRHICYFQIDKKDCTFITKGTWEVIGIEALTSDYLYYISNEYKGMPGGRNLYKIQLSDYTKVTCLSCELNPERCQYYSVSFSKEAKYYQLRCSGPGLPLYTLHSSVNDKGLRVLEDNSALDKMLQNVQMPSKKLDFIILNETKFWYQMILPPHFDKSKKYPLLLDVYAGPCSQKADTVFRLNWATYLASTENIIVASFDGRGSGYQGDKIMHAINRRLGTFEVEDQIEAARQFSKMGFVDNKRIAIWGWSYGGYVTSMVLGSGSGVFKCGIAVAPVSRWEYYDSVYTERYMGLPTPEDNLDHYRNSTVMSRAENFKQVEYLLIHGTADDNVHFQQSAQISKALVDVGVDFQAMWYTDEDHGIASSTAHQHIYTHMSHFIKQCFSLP
# T2 sequence (P14740 37-767 limits assumed): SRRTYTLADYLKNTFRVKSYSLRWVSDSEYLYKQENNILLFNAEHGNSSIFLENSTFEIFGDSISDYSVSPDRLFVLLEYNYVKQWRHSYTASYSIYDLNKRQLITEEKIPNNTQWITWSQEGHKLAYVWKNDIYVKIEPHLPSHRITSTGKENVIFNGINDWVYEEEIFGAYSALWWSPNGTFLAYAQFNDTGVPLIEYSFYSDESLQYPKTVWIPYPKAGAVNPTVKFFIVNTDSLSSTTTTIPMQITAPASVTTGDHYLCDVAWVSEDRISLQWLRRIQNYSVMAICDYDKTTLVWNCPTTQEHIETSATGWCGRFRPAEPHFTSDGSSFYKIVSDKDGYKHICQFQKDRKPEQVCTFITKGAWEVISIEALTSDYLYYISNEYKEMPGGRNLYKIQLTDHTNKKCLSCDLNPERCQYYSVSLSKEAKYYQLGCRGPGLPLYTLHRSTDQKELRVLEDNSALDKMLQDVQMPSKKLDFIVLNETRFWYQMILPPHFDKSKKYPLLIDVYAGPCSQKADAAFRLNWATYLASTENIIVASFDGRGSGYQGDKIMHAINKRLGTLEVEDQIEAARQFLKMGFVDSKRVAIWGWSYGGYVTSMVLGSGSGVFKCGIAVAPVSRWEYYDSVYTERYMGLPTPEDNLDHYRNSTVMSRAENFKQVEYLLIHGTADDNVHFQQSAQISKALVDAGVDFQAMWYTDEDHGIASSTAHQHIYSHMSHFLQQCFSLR
# Chain of DPP-9 (Q86TI2 whole entry): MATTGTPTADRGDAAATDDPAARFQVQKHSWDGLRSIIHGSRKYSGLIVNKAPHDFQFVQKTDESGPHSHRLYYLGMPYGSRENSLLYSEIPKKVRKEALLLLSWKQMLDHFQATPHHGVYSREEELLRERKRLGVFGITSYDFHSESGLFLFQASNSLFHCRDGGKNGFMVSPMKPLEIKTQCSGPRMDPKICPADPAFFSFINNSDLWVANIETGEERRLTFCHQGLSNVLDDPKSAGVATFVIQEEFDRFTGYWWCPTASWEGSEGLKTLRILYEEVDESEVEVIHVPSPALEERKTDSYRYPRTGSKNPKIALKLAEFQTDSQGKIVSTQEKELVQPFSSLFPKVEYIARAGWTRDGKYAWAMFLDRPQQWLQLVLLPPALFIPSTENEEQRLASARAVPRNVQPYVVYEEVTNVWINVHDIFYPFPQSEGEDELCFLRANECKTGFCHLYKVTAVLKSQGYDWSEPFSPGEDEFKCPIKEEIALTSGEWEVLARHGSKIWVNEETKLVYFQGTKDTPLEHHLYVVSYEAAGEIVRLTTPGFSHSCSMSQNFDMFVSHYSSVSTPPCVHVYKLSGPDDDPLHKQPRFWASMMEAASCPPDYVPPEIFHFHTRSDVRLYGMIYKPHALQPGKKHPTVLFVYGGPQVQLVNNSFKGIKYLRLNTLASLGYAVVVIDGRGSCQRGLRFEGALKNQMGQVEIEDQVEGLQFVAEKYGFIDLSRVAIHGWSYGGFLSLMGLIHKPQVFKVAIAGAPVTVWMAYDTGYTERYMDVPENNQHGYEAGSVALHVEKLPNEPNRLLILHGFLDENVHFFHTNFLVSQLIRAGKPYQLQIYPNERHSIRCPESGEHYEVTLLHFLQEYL
# Chain of DPP-8 (Q6V1X1 whole entry): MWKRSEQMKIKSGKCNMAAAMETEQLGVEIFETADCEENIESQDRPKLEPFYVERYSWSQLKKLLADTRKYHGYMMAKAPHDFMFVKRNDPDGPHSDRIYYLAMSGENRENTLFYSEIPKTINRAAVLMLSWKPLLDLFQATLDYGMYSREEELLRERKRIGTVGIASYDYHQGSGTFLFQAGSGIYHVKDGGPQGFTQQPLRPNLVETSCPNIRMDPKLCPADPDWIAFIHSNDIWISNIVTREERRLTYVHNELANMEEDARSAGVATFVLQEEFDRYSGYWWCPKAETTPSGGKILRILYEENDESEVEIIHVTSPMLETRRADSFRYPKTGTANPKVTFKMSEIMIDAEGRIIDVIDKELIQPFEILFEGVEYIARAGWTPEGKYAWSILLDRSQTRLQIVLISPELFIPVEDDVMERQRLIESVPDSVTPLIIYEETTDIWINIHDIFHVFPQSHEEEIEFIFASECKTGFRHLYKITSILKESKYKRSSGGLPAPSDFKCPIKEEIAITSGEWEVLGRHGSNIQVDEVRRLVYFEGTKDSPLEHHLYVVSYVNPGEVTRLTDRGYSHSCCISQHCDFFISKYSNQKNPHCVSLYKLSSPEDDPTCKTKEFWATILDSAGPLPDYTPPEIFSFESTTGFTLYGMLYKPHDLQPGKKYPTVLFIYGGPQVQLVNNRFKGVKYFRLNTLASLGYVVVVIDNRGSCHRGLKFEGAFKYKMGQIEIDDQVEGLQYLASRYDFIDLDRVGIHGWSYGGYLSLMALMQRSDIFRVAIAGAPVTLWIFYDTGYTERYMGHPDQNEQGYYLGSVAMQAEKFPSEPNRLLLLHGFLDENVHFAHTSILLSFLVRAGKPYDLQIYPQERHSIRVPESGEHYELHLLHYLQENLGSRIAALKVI
Molecule,"viability at 48 h, 50 µM [1] [%]",% DPPH Scavenging [2] [%],IC50 (recombinant human DPP-4) [µM],IC50 (DPP-9) [µM],IC50 (DPP-8) [µM],"AUC of OGTT [3, 4] [mg·min/dL]","AUC of OGTT ([3]; without MET, alogliptin 20 mg/kg/day oral, four weeks) [mg·min/dL]",Fold DPP-4 inhibitory activity relative to alogliptin (recombinant human DPP-4) [fold],Glucose tolerance (AUC of OGTT versus non-treated diabetic group) ([3]; four weeks),Reduction of AUC of OGTT by MET addition ([3]; four weeks) [%],DPP-4 blood activity (blood DPP-4 activity; 12 h) [%],DPP-4 blood activity (blood DPP-4 activity; 24 h) [%],DPP-4 blood activity (blood DPP-4 activity; 48 h) [%],"viability at 48 h, 10 µM ([1]; 10 µM) [%]","viability at 48 h, 30 µM ([1]; 30 µM) [%]"
"Nc1ccc(C2=CC(c3ccc(Cl)cc3)NC(SC(=O)c3ccccc3CN3C(=O)c4ccccc4C3=O)=N2)cc1 (stereo not drawn) [Compound 10h, S-(4-(4-Aminophenyl)-6-(4-chlorophenyl)-1,6-dihydropyrimidin-2-yl)2-((1,3-dioxoisoindolin-2-yl)methyl)benzothioate]",77.5,85.74 ± 2.76,0.0104 ± 0.00054,> 100,> 100,–,–,–,–,–,–,–,–,–,–
"Cn1c(=O)cc(N2CCC[C@@H](N)C2)n(Cc2ccccc2C#N)c1=O [Alogliptin, reference compound]",–,–,–,–,–,15451 ± 110,20835 ± 146,–,–,–,–,–,–,–,–
"O=C(SC1=NC(c2ccccc2)=CC(c2ccccc2)N1)c1ccccc1CN1C(=O)c2ccccc2C1=O (stereo not drawn) [Compound 10a, S-(4,6-Diphenyl-1,6-dihydropyrimidin-2-yl)2-((1,3-dioxoisoindolin-2-yl)methyl)benzothioate]",–,73.85 ± 2.46,0.0197 ± 0.00127,> 100,> 100,–,–,–,–,–,–,–,–,–,–
"COc1ccc(C2C=C(c3ccc(Cl)cc3)N=C(SC(=O)c3ccccc3CN3C(=O)c4ccccc4C3=O)N2)cc1 (stereo not drawn) [Compound 10b, S-(4-(4-Chlorophenyl)-6-(4-methoxyphenyl)-1,6-dihydropyrimidin-2-yl)2-((1,3-dioxoisoindolin-2-yl)methyl)benzothioate]",–,74.28 ± 1.69,0.00378 ± 0.00023,> 100,> 100,–,–,1.5,–,–,–,–,–,–,–
"Nc1ccc(C2=CC(c3cccc4ccccc34)NC(SC(=O)c3ccccc3CN3C(=O)c4ccccc4C3=O)=N2)cc1 (stereo not drawn) [Compound 10j, S-(4-(4-Aminophenyl)-6-(naphthalen-1-yl)-1,6-dihydropyrimidin-2-yl)2-((1,3-dioxoisoindolin-2-yl)methyl)benzothioate]",–,93.52 ± 1.65,0.00735 ± 0.00036,> 100,> 100,–,–,–,–,–,–,–,–,–,–
"O=C(SC1=NC(c2ccc(Cl)cc2)=CC(c2ccco2)N1)c1ccccc1CN1C(=O)c2ccccc2C1=O (stereo not drawn) [Compound 10i, S-(4-(4-Chlorophenyl)-6-(furan-2-yl)-1,6-dihydropyrimidin-2-yl)2-((1,3-dioxoisoindolin-2-yl)methyl)benzothioate]",–,69.11 ± 1.44,0.00066 ± 4e-05,> 100,> 100,–,–,8.6,significantly improved glucose tolerance above alogliptin,21.7,18.8,49.9,76,74.6,–
"Cc1ccc(C2=CC(c3ccc(Cl)cc3)NC(SC(=O)c3ccccc3CN3C(=O)c4ccccc4C3=O)=N2)cc1 (stereo not drawn) [Compound 10d, S-(6-(4-Chlorophenyl)-4-(p-tolyl)-1,6-dihydropyrimidin-2-yl)2-((1,3-dioxoisoindolin-2-yl)methyl)benzothioate]",–,80.16 ± 1.38,0.00219 ± 0.00014,> 100,> 100,–,–,2.6,–,–,–,–,–,–,–
"O=C(SC1=NC(c2ccc(Cl)cc2)=CC(c2ccccc2)N1)c1ccccc1CN1C(=O)c2ccccc2C1=O (stereo not drawn) [Compound 10f, S-(4-(4-Chlorophenyl)-6-phenyl-1,6-dihydropyrimidin-2-yl)2-((1,3-dioxoisoindolin-2-yl)methyl)benzothioate]",–,57.63 ± 2.14,0.0315 ± 0.00241,> 100,> 100,–,–,–,–,–,–,–,–,–,–
"S-(4-(4-Chlorophenyl)-6-(4-nitrophenyl)-1,6-dihydropyrimidin-2-yl)2-((1,3-dioxoisoindolin-2-yl)methyl)benzothioate [Compound 10g]",–,49.47 ± 1.08,0.00051 ± 3e-05,> 100,> 100,13787 ± 201,–,11.2,significantly improved glucose tolerance above alogliptin,22.93,18.45,47,73.3,–,–
"CN(C)c1ccc(C2C=C(c3ccc(Br)cc3)N=C(SC(=O)c3ccccc3CN3C(=O)c4ccccc4C3=O)N2)cc1 (stereo not drawn) [Compound 10e, S-(4-(4-Bromophenyl)-6-(4-(dimethylamino)phenyl)-1,6-dihydropyrimidin-2-yl) 2-((1,3-dioxoisoindolin-2-yl)methyl)benzothioate]",–,87.21 ± 2.58,0.00142 ± 0.00011,> 100,> 100,–,–,4,significantly improved glucose tolerance above alogliptin,22.82,–,–,–,–,–
"O=C(SC1=NC(c2ccc(Cl)cc2)=CC(c2ccc(Cl)cc2)N1)c1ccccc1CN1C(=O)c2ccccc2C1=O (stereo not drawn) [Compound 10c, S-(4,6-Bis(4-chlorophenyl)-1,6-dihydropyrimidin-2-yl)2-((1,3-dioxoisoindolin-2-yl)methyl)benzothioate]",72.5,52.39 ± 0.93,0.0147 ± 0.00082,> 100,> 100,–,–,–,–,–,–,–,–,–,72.6
